# Read-outs that look alike come from different tables or passages of the source.
# Target: T1, PARP7 (Homo sapiens, UniProt Q7Z3E1)
# T1 construct: purchased BPS Bioscience
# T1 sequence (Q7Z3E1 1-657): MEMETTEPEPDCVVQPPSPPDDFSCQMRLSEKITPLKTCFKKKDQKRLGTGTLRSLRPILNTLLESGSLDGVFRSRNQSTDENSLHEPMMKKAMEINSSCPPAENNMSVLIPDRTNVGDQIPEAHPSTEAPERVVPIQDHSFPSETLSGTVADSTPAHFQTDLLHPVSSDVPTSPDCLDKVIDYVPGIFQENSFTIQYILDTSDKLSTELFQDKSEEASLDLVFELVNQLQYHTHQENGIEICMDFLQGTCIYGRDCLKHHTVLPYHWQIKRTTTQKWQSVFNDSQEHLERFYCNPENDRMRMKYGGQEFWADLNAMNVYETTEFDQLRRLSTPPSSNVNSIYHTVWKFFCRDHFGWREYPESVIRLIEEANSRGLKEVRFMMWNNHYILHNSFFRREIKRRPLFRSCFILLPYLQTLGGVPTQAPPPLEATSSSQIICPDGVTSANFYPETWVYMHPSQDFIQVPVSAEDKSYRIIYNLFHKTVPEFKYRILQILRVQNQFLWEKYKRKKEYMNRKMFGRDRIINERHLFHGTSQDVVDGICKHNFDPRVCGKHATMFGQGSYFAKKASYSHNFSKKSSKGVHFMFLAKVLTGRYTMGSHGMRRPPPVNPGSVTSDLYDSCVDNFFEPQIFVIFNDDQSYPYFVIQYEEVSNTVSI
# Experiment: Inhibitory activity of compounds on PARP7 enzyme (PARP7 Chemiluminescent Assay Kit)
# Assay type: biochemical
# Protocol: Experimental materials: PARP7 Chemiluminescent Assay Kit, BPS Bioscience; DMSO, China National Pharmaceutical Group, Nivo, PerkinElmer.
# (1) Preparation of Solutions and Buffers:
# Preparation of 10×PBS: 720 mg of KH2PO4, 45 g of NaCl and 5.311 g of Na2HPO4·12H2O were weighed respectively and dissolved in 500 mL of deionized water, a system pH value was adjusted to 7.4, sterilization was performed at 121° C. for 30 min, and the system after cooling was placed at 4° C. for later use.
# Preparation of 1×PBS: 10×PBS was diluted 10 times with deionized water, that is, 9 parts of deionized water was added to 1 part of 10×PBS for dilution.
# Preparation of wash buffer: 1×PBS contained 0.05% Tween-20.
# Preparation of 1×PARP buffer (prepared freshly before use): 10×PARP buffer was diluted 10 times with deionized water and placed on ice for later use.
# (2) Preparation of Compound Working Solution Concentration:
# According to test requirements, a compound to be tested is diluted with 100% DMSO to a desired concentration, and then diluted 10 times with 1×PARP buffer to prepare a 10× compound working solution.
# a. 5× histone mixture was thawed on ice one day prior to the experiment;
# b. preparation of 1× histone mixture: 1× histone mixture was prepared through the 5× histone mixture by using 1×PBS; and 25 μL of 1× histone mixture was taken from each well and transferred into a test well plate and incubated overnight at 4° C.;
# c. 100 μL of Blocking buffer was taken from each well and added to the test well plate and incubated for 90 min at 25° C.;
# d. after the incubation was completed, the liquid in the test well plate was spin-dried, and the test well plate was washed repeatedly for 3 times;
# e. 2.5 μL of the compound working solution was taken from each well and added to the test well plate according to an experimental layout diagram; and 1×PARP buffer with a corresponding volume of 10% DMSO was added to positive control wells (Positive Control), and 1×PARP buffer of a corresponding volume was added to blank control wells (Blank);
# f. after the enzyme was completely dissolved, an enzyme stock solution was diluted with 1×PARP buffer to 6 ng/μL;
# g. 10 μL of enzyme solution was taken from each well and added to the test well plate, the blank control wells were added with the corresponding volume of 1×PARP buffer, and in which case, the enzyme amount was 60 ng per well. Note: this step needs to be performed on ice;
# h. 12.5 μL of master mixture was added to each well of the test well plate (12.5 μL master mixture included 1.25 μL of 10×PARP buffer, 1.25 μL of Opti-PARP 10× Assay mixture and 10 μL of water); the test well plate was sealed and incubated at 25° C. for 60 min;
# i. after the incubation was completed, the liquid in the test well plate was spin-dried, and the test well plate was washed repeatedly for 3 times;
# j. Streptavidin-HRP in a kit was diluted 50 times with a Blocking buffer, 25 μL was taken from each well and added to the test well plate, and incubated at 25° C. for 30 min;
# k. after the incubation was completed, the liquid in the test well plate was spin-dried, and the test well plate was washed repeatedly for 3 times;
# l. ELISA ECL Substrate A and ELISA ECL Substrate B in the kit was mixed to obtain a mixed solution according to a ratio of 1:1, 50 μL of the mixed solution was added to each well of the test well plate, Nivo was used to perform Luminescence detection immediately, and a luminous value (RLU) was read; and
# m. calculation of an enzyme rate: Enzyme Activity=(RLU(Sample)−RLU(Blank))/(RLU(Pos.Ctrl)−RLU(Blank))×100%; and enzyme inhibition rate=1−% Enzyme Activity, and specific results were shown in Table 1 below.
# [1] = chemiluminescence, symbols defined as IC50 classes, read-out: 100 nM Inhibition Rate
# [2] = summary of Table 1, read-out: enzyme inhibition IC50 values
SMILES,IC50 [1] [nM],IC50 [2] [nM]
"C[C@@H](CN1CC(C(=O)N2CCN(c3ncc(-c4ccc(C(F)(F)F)cc4)cn3)CC2)C1)Nc1cn[nH]c(=O)c1C(F)(F)F [I-A-2, (S)-4-(trifluoromethyl)-5-((1-(3-(4-(5-(4-(trifluoromethyl)phenyl)pyrimidin-2-yl)piperazine-1-carbonyl)azetidin-1-yl)propan-2-yl)amino)pyridazin-3(2H)-one]",100 to 500,–
"C[C@@H](CN1CC(C(=O)N2CCN(c3ncc(C#N)cn3)CC2)C1)Nc1cn[nH]c(=O)c1C(F)(F)F [I-A-3, (S)-2-(4-(1-(2-((6-oxo-5-(trifluoromethyl)-1,6-dihydropyridazin-4-yl)amino)propyl)azetidine-3-carbonyl)piperazin-1-yl)pyrimidine-5-carbonitrile]",< 100,–
"C[C@@H](CN1CC(C(=O)N2CCN(c3ncc(S(C)(=O)=O)cn3)CC2)C1)Nc1cn[nH]c(=O)c1C(F)(F)F [I-A-4, (S)-5-((1-(3-(4-(5-(methylsulfonyl)pyrimidin-2-yl)piperazine-1-carbonyl)azetidin-1-yl)propan-2-yl)amino)-4-(trifluoromethyl)pyridazin-3(2H)-one]",< 100,–
"C[C@@H](CN1CC(C(=O)N2CCN(c3ncc(Cl)cn3)CC2)C1)Nc1cn[nH]c(=O)c1C(F)(F)F [I-A-5, (S)-5-((1-(3-(4-(5-chloropyrimidin-2-yl)piperazine-1-carbonyl)azetidin-1-yl)propan-2-yl)amino)-4-(trifluoromethyl)pyridazin-3(2H)-one]",< 100,–
"Cc1cnc(N2CCN(C(=O)C3CN(C[C@H](C)Nc4cn[nH]c(=O)c4C(F)(F)F)C3)CC2)nc1 [I-A-6, (S)-5-((1-(3-(4-(5-methylpyrimidin-2-yl)piperazine-1-carbonyl)azetidin-1-yl)propan-2-yl)amino)-4-(trifluoromethyl)pyridazin-3(2H)-one]",< 100,–
"C[C@@H](CN1CC(C(=O)N2CCN(c3ncc(Br)cn3)CC2)C1)Nc1cn[nH]c(=O)c1C(F)(F)F [I-A-7, (S)-5-((1-(3-(4-(5-bromopyrimidin-2-yl)piperazine-1-carbonyl)azetidin-1-yl)propan-2-yl)amino)-4-(trifluoromethyl)pyridazin-3(2H)-one]",< 100,–
"C[C@@H](CN1CC(C(=O)N2CCN(c3ncc(F)cn3)CC2)C1)Nc1cn[nH]c(=O)c1C(F)(F)F [I-A-8, (S)-5-((1-(3-(4-(5-fluoropyrimidin-2-yl)piperazine-1-carbonyl)azetidin-1-yl)propan-2-yl)amino)-4-(trifluoromethyl)pyridazin-3(2H)-one]",100 to 500,–
"COc1cnc(N2CCN(C(=O)C3CN(C[C@H](C)Nc4cn[nH]c(=O)c4C(F)(F)F)C3)CC2)nc1 [I-A-9, (S)-5-((1-(3-(4-(5-methoxypyrimidin-2-yl)piperazine-1-carbonyl)azetidin-1-yl)propan-2-yl)amino)-4-(trifluoromethyl)pyridazin-3(2H)-one]",< 100,–
"C[C@@H](CN1CC(C(=O)N2CCN(c3ccc(C(F)(F)F)cn3)CC2)C1)Nc1cn[nH]c(=O)c1C(F)(F)F [I-A-10, (S)-4-(trifluoromethyl)-5-((1-(3-(4-(5-(trifluoromethyl)pyridin-2-yl)piperazine-1-carbonyl)azetidin-1-yl)propan-2-yl)amino)pyridazin-3(2H)-one]",< 100,–
C[C@@H](CN1CC(C(=O)N2CCN(c3ccc(C(F)(F)F)cc3)CC2)C1)Nc1cn[nH]c(=O)c1C(F)(F)F [I-A-11],100 to 500,–
C[C@@H](CN1CC(C(=O)N2CCN(c3cccc4c3oc3ccccc34)CC2)C1)Nc1cn[nH]c(=O)c1C(F)(F)F [I-A-12],100 to 500,–
"C[C@@H](CN1CC(C(=O)N2CCN(c3nccc(C(F)(F)F)n3)CC2)C1)Nc1cn[nH]c(=O)c1C(F)(F)F [I-A-13, (S)-4-(trifluoromethyl)-5-((1-(3-(4-(4-(trifluoromethyl)pyrimidin-2-yl)piperazine-1-carbonyl)azetidin-1-yl)propan-2-yl)amino)pyridazin-3(2H)-one]",< 100,< 100
"C[C@@H](CN1CC(C(=O)N2CCN(c3ncccn3)CC2)C1)Nc1cn[nH]c(=O)c1C(F)(F)F [I-A-14, (S)-5-((1-(3-(4-(pyrimidin-2-yl)piperazine-1-carbonyl)azetidin-1-yl)propan-2-yl)amino)-4-(trifluoromethyl)pyridazin-3(2H)-one]",100 to 500,–
"C[C@@H](CN1CC(C(=O)NC2CN(c3ncc(C(F)(F)F)cn3)C2)C1)Nc1cn[nH]c(=O)c1C(F)(F)F [I-A-15, (S)-1-(2-((6-oxo-5-(trifluoromethyl)-1,6-dihydropyridazin-4-yl)amino)propyl)-N-(1-(5-(trifluoromethyl)pyrimidin-2-yl)azetidin-3-yl)azetidine-3-carboxamide]",< 100,–
"C[C@@H](CN1CC(C(=O)N(C)C2CN(c3ncc(C(F)(F)F)cn3)C2)C1)Nc1cn[nH]c(=O)c1C(F)(F)F [I-A-16, (S)-N-methyl-1-(2-((6-oxo-5-(trifluoromethyl)-1,6-dihydropyridazin-4-yl)amino)propyl)-N-(1-(5-(trifluoromethyl)pyrimidin-2-yl)azetidin-3-yl)azetidine-3-carboxamide]",< 100,–
"CC1CN(c2ncc(C(F)(F)F)cn2)CC(C)N1C(=O)C1CN(C[C@H](C)Nc2cn[nH]c(=O)c2C(F)(F)F)C1 (stereo partly drawn) [I-A-17, 5-(((2S)-1-(3-(2,6-dimethyl-4-(5-(trifluoromethyl)pyrimidin-2-yl)piperazine-1-carbonyl)azetidin-1-yl)propan-2-yl)amino)-4-(trifluoromethyl)pyridazin-3(2H)-one]",< 100,–
"C[C@@H](CN1CC[C@H](C(=O)N2CCN(c3ncc(C(F)(F)F)cn3)CC2)C1)Nc1cn[nH]c(=O)c1C(F)(F)F [I-A-18, 4-(trifluoromethyl)-5-(((2S)-1-(3-(4-(5-(trifluoromethyl)pyrimidin-2-yl)piperazine-1-carbonyl)pyrrolidin-1-yl)propan-2-yl)amino)pyridazin-3(2H)-one]",100 to 500,–
"C[C@@H](CN1CCC(C(=O)N2CCN(c3ncc(C(F)(F)F)cn3)CC2)CC1)Nc1cn[nH]c(=O)c1C(F)(F)F [I-A-19, (S)-4-(trifluoromethyl)-5-((1-(4-(4-(5-(trifluoromethyl)pyrimidin-2-yl)piperazine-1-carbonyl)piperidin-1-yl)propan-2-yl)amino)pyridazin-3(2H)-one]",100 to 500,–
"O=C(C1CN(CCNc2cn[nH]c(=O)c2C(F)(F)F)C1)N1CCN(c2ncc(C(F)(F)F)cn2)CC1 [I-A-20, 4-(trifluoromethyl)-5-((2-(3-(4-(5-(trifluoromethyl)pyrimidin-2-yl)piperazine-1-carbonyl)azetidin-1-yl)ethyl)amino)pyridazin-3(2H)-one]",< 100,< 100
